Reference: ChEMBL document CHEMBL3045995, “Novel antifeeding limonoids from Dysoxylum hainanense” (2002)

The compounds below were run on Pieris rapae (assay: Antifeeding activity against fifth-instar larvae Pieris rapae in compound treated Brassica oleracea L leaf disk at 500 ppm measured after 24 hr relative to control).
Type: functional

Compound	FDI [%]
C/C=C(\C)C(=O)O[C@H]1C[C@@H](OC(C)=O)[C@@]2(C(=O)OC)CO[C@H]3[C@@H](O)[C@@](C)([C@]45O[C@@]4(C)[C@@H]4C[C@H]5O[C@@H]5OC=C[C@@]54O)[C@H]4[C@]1(CO[C@]4(O)C(=O)OC)[C@@H]32 [AZADIRACHTIN A]	100
C=C1[C@@H]([C@]2(C)[C@H]3CC(=O)O[C@@]3(C)CO[C@@H]2CC(=O)O)[C@@H](O)[C@H](OC(=O)C(O)C(C)C)[C@@]2(C)[C@H](c3ccoc3)[C@@H](O)[C@H]3O[C@]132 (stereo partly specified) [DYSOXYLUMIC ACID A]	78.7
C=C1[C@@H]([C@]2(C)[C@H]3CC(=O)O[C@@]3(C)CO[C@@H]2CC(=O)O)[C@@H](O)[C@H](OC(=O)C(O)C(C)C)[C@@]2(C)[C@H](C3=CC(O)OC3=O)[C@@H](O)[C@H]3O[C@]132 (stereo partly specified) [DYSOXYLUMIC ACID B]	64.1
C=C1[C@@H]2[C@@H](O[C@@H](CC(=O)O)[C@@]2(C)[C@H]2CC(=O)O[C@]2(C)CO)[C@H](OC(=O)C(O)C(C)C)[C@@]2(C)[C@H](c3ccoc3)[C@@H](O)[C@H]3O[C@]132 (stereo partly specified) [DYSOXYLUMIC ACID C]	59.4
CC(=O)O[C@@H]1[C@H]2C(=C3[C@H](O)[C@H](O)[C@@H](c4ccoc4)[C@]3(C)[C@H]1OC(=O)C(O)C(C)C)COC(=O)C[C@@H](OC(=O)C(O)C(C)C)[C@@]2(C)[C@@H](CC(=O)O)C(C)(O)CO (stereo partly specified) [DYSOXYLUMIC ACID D]	29.5
C=C1[C@@H]([C@@]2(C)[C@@H](OC(C)=O)CC(=O)O[C@](C)(COC(C)=O)[C@@H]2CC(=O)OC)[C@@H](OC=O)[C@H](OC(=O)[C@H](O)C(C)C)[C@@]2(C)[C@@H](c3ccoc3)[C@@H](OC(=O)[C@@H](C)CC)[C@H]3O[C@]132 [DYSOXYLUMINS A]	73.8
C=C1[C@@H]([C@@]2(C)[C@@H](OC(C)=O)CC(=O)O[C@](C)(COC(C)=O)[C@@H]2CC(=O)OC)[C@@H](OC=O)[C@H](OC(=O)[C@H](O)C(C)C)[C@@]2(C)[C@@H](c3ccoc3)[C@@H](OC(=O)[C@H](OC(C)=O)C(C)C)[C@H]3O[C@]132 [DYSOXYLUMINS B]	77.4
C=C1[C@@H]([C@@]2(C)[C@@H](OC(C)=O)CC(=O)O[C@](C)(COC(C)=O)[C@@H]2CC(=O)OC)[C@@H](OC=O)[C@H](OC(=O)[C@H](O)C(C)C)[C@@]2(C)[C@@H](c3ccoc3)[C@@H](OC(=O)[C@H](O)C(C)C)[C@H]3O[C@]132 [DYSOXYLUMINS C]	74.9
C=C1[C@@H]2[C@@H](O[C@H]3CC(=O)O[C@@]4(C)COC(=O)C[C@@H]4[C@]32C)[C@H](OC(=O)C(O)C(C)C)[C@@]2(C)[C@H](c3ccoc3)[C@@H](OC(=O)C(O)C(C)C)[C@H]3O[C@]132 (stereo partly specified) [DYSOXYLUMOLIDE A]	27.9
CC(C)C(O)C(=O)O[C@H]1[C@H](O)[C@H]2C(=C3[C@H](O)[C@H](O)[C@@H](c4ccoc4)[C@@]31C)COC(=O)C[C@@H](OC(=O)C(O)C(C)C)[C@@]2(C)[C@H]1CC(=O)OC[C@@]1(C)O (stereo partly specified) [DYSOXYLUMOLIDE B]	28.3
CC(C)C(O)C(=O)OC(C(=O)O[C@@H]1[C@H](O)[C@@H]2[C@](C)(/C=C\C(=O)OC[C@@]2(C)O)[C@H]2CC[C@@]3(C)[C@H](c4ccoc4)OC(=O)[C@H]4O[C@]43[C@]12C)C(C)C (stereo partly specified) [DYSOXYLUMOLIDE C]	22.4
